Results from patent US20070128217A1 (priority 2003, published 2007).

Key:
[1] = system: control sera (pooled serum of ten healthy LUMC hospital workers; commercial negative donor pooled serum from the Dutch bloodbank); format: binding, human; parameters: Binding of Control serum LUMC to linear peptides / Binding of Control serum Blood-bank to linear peptides / Binding of Control serum LUMC to looped peptides / Binding of Control Serum Blood-Bank to Looped peptides / Binding of Control serum LUMC to linear peptides of the protein M of SARS-CoV Urbani / Binding of Control serum Blood-bank to linear peptides of the protein M of SARS-CoV Urbani / Binding of Control serum LUMC to looped peptides of the protein M of SARS-CoV Urbani / Binding of Control Serum Blood-Bank to Looped peptides of the protein M of SARS-CoV Urbani: unit not given here
[2] = system: rabbit serum obtained by immunizing a rabbit with the SARS-CoV strain Frankfurt 1; format: binding; parameters: Binding of a rabbit serum to linear peptides / Binding of a rabbit serum to looped peptides / Rabbit serum linear peptides / Rabbit serum looped peptides / Binding of a rabbit serum to linear peptides of protein N of SARS-CoV Urbani (Rabbit serum linear peptides) / Binding of a rabbit serum to looped/cyclic peptides of protein N of SARS-CoV Urbani (Rabbit serum looped peptides): unit not given here
[3] = system: antibodies in sera from SARS patients (sera 1a, 1b, 2, 6, 37, 62, London, SARS-yellow, SARS-green); format: binding, human; parameters: Binding of serum 6 to linear peptides of protein X1 of SARS-CoV Urbani / Binding of serum 37 to linear peptides of protein X1 of SARS-CoV Urbani / Binding of serum 6 to looped/cyclic peptide (PEPSCAN-ELISA) / Binding of serum 37 to looped/cyclic peptide (PEPSCAN-ELISA) / Binding of serum 37 to looped/cyclic peptides of protein X1 of SARS-CoV Urbani / Binding of serum 6 to linear peptides of protein X2 / Binding of serum 37 to linear peptides of protein X2 / Binding of serum 37 to looped/cyclic peptides of protein X2 of SARS-CoV Urbani / Binding of serum 6 to linear peptides of protein M of SARS-CoV Urbani / Binding of serum 37 to linear peptides of protein M of SARS-CoV Urbani / Binding of serum 6 to looped/cyclic peptides of protein M of SARS-CoV Urbani / Binding of serum 37 to looped/cyclic peptides of protein M of SARS-CoV Urbani / Binding of serum 6 to linear peptides of protein X3 of SARS-CoV Urbani / Binding of serum 37 to linear peptides of protein X3 of SARS-CoV Urbani / Binding of serum 37 to looped/cyclic peptides of protein X3 of SARS-CoV Urbani / Binding of serum 6 to linear peptides of protein X4 of SARS-CoV Urbani / Binding of serum 37 to linear peptides of protein X4 of SARS-CoV Urbani / Binding of serum 37 to looped/cyclic peptides of protein X4 of SARS-CoV Urbani / Binding of serum 6 to linear peptides of protein X5 of SARS-CoV Urbani / Binding of serum 37 to linear peptides of protein X5 of SARS-CoV Urbani / Binding of serum 37 to looped/cyclic peptides of protein X5 of SARS-CoV Urbani / Binding of serum 6 to linear peptides of protein N of SARS-CoV Urbani / Binding of serum 37 to linear peptides of protein N of SARS-CoV Urbani / Binding of serum 6 to linear peptide (PEPSCAN-ELISA) / Binding of serum 1a to looped/cyclic peptides of protein N of SARS-CoV Urbani / Binding of serum 1b to looped/cyclic peptides of protein N of SARS-CoV Urbani / Binding of serum 2 to looped/cyclic peptides of protein N of SARS-CoV Urbani / Binding of serum 6 to looped/cyclic peptides of protein N of SARS-CoV Urbani / Binding of serum 37 to looped/cyclic peptides of protein N of SARS-CoV Urbani / Binding of serum 62 to looped/cyclic peptides of protein N of SARS-CoV Urbani / Binding of serum London to looped/cyclic peptides of protein N of SARS-CoV Urbani / Binding of serum SARS-green to looped/cyclic peptides of protein N of SARS-CoV Urbani: unit not given here

| Sequence | Rabbit serum linear peptides [2] | Rabbit serum looped peptides [2] | Binding of Control Serum Blood-Bank to Looped peptides [1] | Binding of Control serum Blood-bank to linear peptides [1] | Binding of Control serum LUMC to linear peptides [1] | Binding of Control serum LUMC to looped peptides [1] | Binding of a rabbit serum to linear peptides [2] | Binding of a rabbit serum to looped peptides [2] | further results |
| --- | --- | --- | --- | --- | --- | --- | --- | --- | --- |
| ILIIIMRTFRIAIWN | 0.5 | 0.6 |  |  |  |  |  |  | Binding of Control Serum Blood-Bank to Looped peptides of the protein X3 of SARS-CoV Urbani [1]: 0.7; Binding of Control serum Blood-bank to linear peptides of the protein X3 of SARS-CoV Urbani [1]: 0.8; Binding of Control serum LUMC to linear peptides of the protein X3 of SARS-CoV Urbani [1]: 0.5; Binding of Control serum LUMC to looped peptides of the protein X3 of SARS-CoV Urbani [1]: 0.3 |
| CVRGTTVLLKEPCPS | 0.5 | 0.5 | 0.9 | 0.8 | 0.7 | 0.9 |  |  |  |
| LRMAGHPLGRCDIKD | 0.3 | 0.1 |  |  |  |  |  |  | Binding of Control Serum Blood-Bank to Looped peptides of the protein M of SARS-CoV Urbani [1]: 0.8; Binding of Control serum Blood-bank to linear peptides of the protein M of SARS-CoV Urbani [1]: 0.7; Binding of Control serum LUMC to linear peptides of the protein M of SARS-CoV Urbani [1]: 0.5; Binding of Control serum LUMC to looped peptides of the protein M of SARS-CoV Urbani [1]: 0.8 |
| LGASQRVGTDSGFAA | 0.3 | 0.1 |  |  |  |  |  |  | Binding of Control Serum Blood-Bank to Looped peptides of the protein M of SARS-CoV Urbani [1]: 0.6; Binding of Control serum Blood-bank to linear peptides of the protein M of SARS-CoV Urbani [1]: 0.9; Binding of Control serum LUMC to linear peptides of the protein M of SARS-CoV Urbani [1]: 0.5; Binding of Control serum LUMC to looped peptides of the protein M of SARS-CoV Urbani [1]: 0.8 |
| YQIGGYSEDRHSGVK |  |  | 0.3 | 0.3 | 0.4 | 0.3 | 0.1 | 0.5 |  |
| YDANYFVCWHTHNYD |  |  | 0.3 | 0.7 | 0.7 | 0.4 | 0.1 | 0.4 |  |
| GASQRVGTDSGFAAY | 0.1 | 0.1 |  |  |  |  |  |  | Binding of Control Serum Blood-Bank to Looped peptides of the protein M of SARS-CoV Urbani [1]: 0.7; Binding of Control serum Blood-bank to linear peptides of the protein M of SARS-CoV Urbani [1]: 0.9; Binding of Control serum LUMC to linear peptides of the protein M of SARS-CoV Urbani [1]: 0.9; Binding of Control serum LUMC to looped peptides of the protein M of SARS-CoV Urbani [1]: 0.7 |
| LFKPLTKKNYSELDD | 0.3 | 0.4 |  |  |  |  |  |  | Binding of Control Serum Blood-Bank to Looped peptides of the protein X3 of SARS-CoV Urbani [1]: 0.8; Binding of Control serum Blood-bank to linear peptides of the protein X3 of SARS-CoV Urbani [1]: 0.7; Binding of Control serum LUMC to linear peptides of the protein X3 of SARS-CoV Urbani [1]: 0.6; Binding of Control serum LUMC to looped peptides of the protein X3 of SARS-CoV Urbani [1]: 0.9 |
| TFFIFNKLVKDPPNV |  |  | 0.6 | 0.7 | 0.6 | 0.6 | 0.1 | 0.5 |  |
| QHQNSKKTTKLVVIL |  |  | 0.6 | 0.5 | 0.6 | 0.5 |  |  | Recognition of the peptide by the rabbit serum [2]: recognized |
| IIMRTFRIAIWNLDV | 0.3 | 0.5 |  |  |  |  |  |  | Binding of Control Serum Blood-Bank to Looped peptides of the protein X3 of SARS-CoV Urbani [1]: 0.9; Binding of Control serum Blood-bank to linear peptides of the protein X3 of SARS-CoV Urbani [1]: 0.9; Binding of Control serum LUMC to linear peptides of the protein X3 of SARS-CoV Urbani [1]: 0.7; Binding of Control serum LUMC to looped peptides of the protein X3 of SARS-CoV Urbani [1]: 0.6 |
| LVKPTVYVYSRVKNL |  |  | 0.7 | 0.8 | 0.4 | 0.7 | 0.6 | 0.9 |  |
| RWHTMVQTCTPNVTI | 0.5 | 0.6 | 0.9 | 0.9 | 0.6 | 0.9 |  |  |  |
| YVYSRVKNLNSSEGV |  |  | 0.9 | 0.8 | 0.6 | 0.8 | 1.2 | 0.5 |  |
| IVNVSLVKPTVYVYS |  |  | 0.9 | 0.7 | 0.4 | 0.9 | 0.5 | 0.5 |  |
| SEDRHSGVKDYVVVH |  |  | 0.5 | 1.0 | 0.8 | 0.5 | 0.1 | 0.4 |  |
| ECVRGTTVLLKEPCP | 0.6 | 0.4 | 0.9 | 0.9 | 0.7 | 0.8 |  |  |  |
| IGVAFLAVFQSATKI |  |  |  |  |  |  | 0.1 | 0.6 | Binding of serum 1a to linear peptides of protein X1 of SARS-CoV Urbani [3]: 0.6; Binding of serum 1a to looped/cyclic peptide (PEPSCAN-ELISA) [3]: 0.5; Binding of serum 1b to linear peptides of protein X1 of SARS-CoV Urbani [3]: 0.5; Binding of serum 1b to looped/cyclic peptide (PEPSCAN-ELISA) [3]: 0.4; Binding of serum 2 to linear peptides of protein X1 of SARS-CoV Urbani [3]: 0.6; Binding of serum 2 to looped/cyclic peptide (PEPSCAN-ELISA) [3]: 0.4; Binding of serum 6 to linear peptides of protein X1 of SARS-CoV Urbani [3]: 0.5; Binding of serum 6 to looped/cyclic peptide (PEPSCAN-ELISA) [3]: 0.3; Binding of serum 37 to linear peptides of protein X1 of SARS-CoV Urbani [3]: 0.6; Binding of serum 37 to looped/cyclic peptide (PEPSCAN-ELISA) [3]: 0.5; Binding of serum 62 to linear peptides of protein X1 of SARS-CoV Urbani [3]: 0.6; Binding of serum 62 to looped/cyclic peptide (PEPSCAN-ELISA) [3]: 0.6; Binding of serum London to linear peptides of protein X1 of SARS-CoV Urbani [3]: 0.2; Binding of serum London to looped/cyclic peptide (PEPSCAN-ELISA) [3]: 0.2; Binding of serum SARS-green to linear peptides of protein X1 of SARS-CoV Urbani [3]: 0.2; Binding of serum SARS-green to looped/cyclic peptide (PEPSCAN-ELISA) [3]: 0.2; Binding of serum SARS-yellow to linear peptides of protein X1 of SARS-CoV Urbani [3]: 0.3; Binding of serum SARS-yellow to looped/cyclic peptide (PEPSCAN-ELISA) [3]: 0.3 |
| QSATKIIALNKRWQL |  |  |  |  |  |  |  |  | Binding of serum 1a to linear peptides of protein X1 of SARS-CoV Urbani [3]: 0.8; Binding of serum 1a to looped/cyclic peptide (PEPSCAN-ELISA) [3]: 0.4; Binding of serum 1b to linear peptides of protein X1 of SARS-CoV Urbani [3]: 0.7; Binding of serum 1b to looped/cyclic peptide (PEPSCAN-ELISA) [3]: 0.4; Binding of serum 2 to linear peptides of protein X1 of SARS-CoV Urbani [3]: 0.7; Binding of serum 2 to looped/cyclic peptide (PEPSCAN-ELISA) [3]: 0.5; Binding of serum 6 to linear peptides of protein X1 of SARS-CoV Urbani [3]: 0.7; Binding of serum 6 to looped/cyclic peptide (PEPSCAN-ELISA) [3]: 0.6; Binding of serum 37 to linear peptides of protein X1 of SARS-CoV Urbani [3]: 0.7; Binding of serum 37 to looped/cyclic peptide (PEPSCAN-ELISA) [3]: 0.6; Binding of serum 62 to linear peptides of protein X1 of SARS-CoV Urbani [3]: 0.8; Binding of serum 62 to looped/cyclic peptide (PEPSCAN-ELISA) [3]: 0.6; Binding of serum London to linear peptides of protein X1 of SARS-CoV Urbani [3]: 0.4; Binding of serum London to looped/cyclic peptide (PEPSCAN-ELISA) [3]: 0.4; Binding of serum SARS-green to linear peptides of protein X1 of SARS-CoV Urbani [3]: 0.4; Binding of serum SARS-green to looped/cyclic peptide (PEPSCAN-ELISA) [3]: 0.4; Binding of serum SARS-yellow to linear peptides of protein X1 of SARS-CoV Urbani [3]: 0.5; Binding of serum SARS-yellow to looped/cyclic peptide (PEPSCAN-ELISA) [3]: 0.4; Recognition of the peptide by the rabbit serum [2]: recognized |
